The values below come from PubChem BioAssay AID248 (DTP/NCI, 2004).

Toxic doses and inconclusive results are not listed.

In the experiment the test system is L1210 leukemia ip in BDF1 mice, survival T/C. Briefly: NCI In Vivo Anticancer Drug Screen. Data for tumor model L1210 Leukemia (intraperitoneal) in B6D2F1 (BDF1) mice. The settings on record: endpoint: mean survival time, higher = longer survival. The procedure, abridged: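 Antitumor effect is assessed in tumor-bearing animals. Survival in the compound arm is compared with a vehicle-dosed control arm and expressed as their quotient.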

[1] abbreviates: dose: 100.0 mg/kg/injection, schedule: Q01DX001 (ip), vehicle: carboxymethylcellulose (CMC).
Where [2] appears, read: dose: 200.0 mg/kg/injection, schedule: Q01DX001 (ip), vehicle: carboxymethylcellulose (CMC).
[3] abbreviates: dose: 400.0 mg/kg/injection, schedule: Q01DX001 (ip), vehicle: carboxymethylcellulose (CMC).
[4] abbreviates: dose: 100.0 mg/kg/injection, schedule: Q01DX009 (ip), vehicle: Klucel (hydroxypropylcellulose) (HPC).
[5] abbreviates: dose: 200.0 mg/kg/injection, schedule: Q01DX009 (ip), vehicle: Klucel (hydroxypropylcellulose) (HPC).
Where [6] appears, read: dose: 100.0 mg/kg/injection, schedule: Q01DX009 (ip), vehicle: saline with Tween-80.

Regarding `CCOC(=O)c1c(O)c(C(=O)O)cc2ccccc12`, the T/C by setting is: (dose: 50.0 mg/kg/injection, schedule: Q01DX001 (ip), vehicle: carboxymethylcellulose (CMC)) 106 % of control; under setting [1], 108 % of control; under setting [2], 106 % of control; under setting [3], 106 % of control.
In the case of `O=NN(CCCl)C(=O)Nc1ccc(Cn2cnc3c(=O)[nH]cnc32)cc1`, the T/C reads like this: (dose: 5.0 mg/kg/injection, schedule: Q01DX009 (ip), vehicle: other) 150 % of control; (dose: 7.0 mg/kg/injection, schedule: Q01DX009 (ip), vehicle: other) 155 % of control; (dose: 14.0 mg/kg/injection, schedule: Q01DX009 (ip), vehicle: other) 162 % of control; (dose: 18.0 mg/kg/injection, schedule: Q01DX001 (ip), vehicle: other) 161 % of control; (dose: 28.0 mg/kg/injection, schedule: Q01DX009 (ip), vehicle: other) 88 % of control; (dose: 31.0 mg/kg/injection, schedule: Q01DX001 (ip), vehicle: other) 155 % of control. In addition, the T/C reads like this: (dose: 36.0 mg/kg/injection, schedule: Q01DX001 (ip), vehicle: other) 185 % of control; (dose: 45.0 mg/kg/injection, schedule: Q01DX001 (ip), vehicle: other) 196 % of control; (dose: 46.0 mg/kg/injection, schedule: Q01DX001 (ip), vehicle: other) 169 % of control; (dose: 62.0 mg/kg/injection, schedule: Q01DX001 (ip), vehicle: other) 169 % of control; (dose: 63.0 mg/kg/injection, schedule: Q01DX001 (ip), vehicle: other) 164 % of control; (dose: 125.0 mg/kg/injection, schedule: Q01DX001 (ip), vehicle: other) 101 % of control.
On to `NCCc1cnc(N=Nc2ccc(C(=O)O)cc2)[nH]1`, for which the T/C by setting is: (dose: 50.0 mg/kg/injection, schedule: Q01DX009 (ip), vehicle: Klucel (hydroxypropylcellulose) (HPC)) 89 % of control; under setting [4], 89 % of control; under setting [5], 87 % of control.
For the compound `O=C(O)c1cc(S(=O)(=O)F)cc(S(=O)(=O)F)c1`, the T/C under setting [6] was 86 % of control.
For the compound `O=C(Nc1ccccc1C(F)(F)F)c1cccc(Cl)c1`, the T/C reads like this: (dose: 50.0 mg/kg/injection, schedule: Q01DX009 (ip), vehicle: saline + alcohol) 89 % of control; (dose: 100.0 mg/kg/injection, schedule: Q01DX009 (ip), vehicle: saline + alcohol) 101 % of control; (dose: 200.0 mg/kg/injection, schedule: Q01DX009 (ip), vehicle: saline + alcohol) 94 % of control.
Turning to `Cc1cc2nc3c(nc2cc1C)C1CC(Br)CCC1N3` (stereo not given), the T/C (dose: 100.0 mg/kg/injection, schedule: Q01DX001 (ip), vehicle: saline) was 97 % of control; the T/C (dose: 200.0 mg/kg/injection, schedule: Q01DX001 (ip), vehicle: saline) is 95 % of control; the T/C (dose: 400.0 mg/kg/injection, schedule: Q01DX001 (ip), vehicle: saline) is 91 % of control.
In the case of `N#CC(Nc1ccccc1)C1CC1c1ccccc1` (stereo not given), the T/C (dose: 12.5 mg/kg/injection, schedule: Q01DX009 (ip), vehicle: saline with Tween-80) was 94 % of control; the T/C (dose: 12.5 mg/kg/injection, schedule: Q04DX003 (ip), vehicle: saline with Tween-80) was 98 % of control; the T/C (dose: 25.0 mg/kg/injection, schedule: Q01DX009 (ip), vehicle: saline with Tween-80) was 100 % of control; the T/C (dose: 25.0 mg/kg/injection, schedule: Q04DX003 (ip), vehicle: saline with Tween-80) is 102 % of control; the T/C (dose: 50.0 mg/kg/injection, schedule: Q01DX009 (ip), vehicle: saline with Tween-80) is 95 % of control; the T/C (dose: 50.0 mg/kg/injection, schedule: Q04DX003 (ip), vehicle: saline with Tween-80) was 101 % of control.
Turning to `Nc1nc(N)c(-c2ccc(Cl)c(Cl)c2)c(/C=C/c2ccc(S(=O)(=O)F)cc2)n1`, the T/C is, setting by setting: (dose: 100.0 mg/kg/injection, schedule: Q01DX001 (ip), vehicle: saline with Tween-80) 87 % of control; (dose: 200.0 mg/kg/injection, schedule: Q01DX001 (ip), vehicle: saline with Tween-80) 91 % of control; (dose: 400.0 mg/kg/injection, schedule: Q01DX001 (ip), vehicle: saline with Tween-80) 87 % of control.
Turning to `Oc1c(CN2CCCC2)cc(Nc2cc(/C=C/c3ccc(Cl)cc3)nc(/C=C\c3ccc(Cl)cc3)n2)cc1CN1CCCC1`, the T/C is 110 % of control (dose: 1.0 mg/kg/injection, schedule: Q01DX009 (ip), vehicle: Klucel (hydroxypropylcellulose) (HPC)); 98 % of control (dose: 3.0 mg/kg/injection, schedule: Q01DX009 (ip), vehicle: Klucel (hydroxypropylcellulose) (HPC)); 101 % of control (dose: 6.0 mg/kg/injection, schedule: Q01DX009 (ip), vehicle: Klucel (hydroxypropylcellulose) (HPC)); 91 % of control (dose: 12.0 mg/kg/injection, schedule: Q01DX009 (ip), vehicle: Klucel (hydroxypropylcellulose) (HPC)); 88 % of control (dose: 12.0 mg/kg/injection, schedule: Q04DX003 (ip), vehicle: saline); 88 % of control (dose: 50.0 mg/kg/injection, schedule: Q04DX003 (ip), vehicle: saline).
`COc1cc(N2C(N)=NC(N)=NC2(C)C)cc(OC)c1OC`: the T/C runs as follows: (dose: 6.25 mg/kg/injection, schedule: Q01DX009 (ip), vehicle: saline) 98 % of control; (dose: 12.5 mg/kg/injection, schedule: Q01DX009 (ip), vehicle: saline) 105 % of control; (dose: 25.0 mg/kg/injection, schedule: Q01DX009 (ip), vehicle: saline) 107 % of control.
Consider `c1cc2c([nH]1)CCCC2`, for which the T/C (dose: 75.0 mg/kg/injection, schedule: Q01DX001 (ip), vehicle: acetone) was 106 % of control; the T/C (dose: 150.0 mg/kg/injection, schedule: Q01DX001 (ip), vehicle: acetone) is 111 % of control; the T/C (dose: 300.0 mg/kg/injection, schedule: Q01DX001 (ip), vehicle: acetone) was 100 % of control.
Regarding `COc1ccc(C2NC(=S)N3C(c4ccc(OC)c(OC)c4)NC(=S)N23)cc1OC` (stereo not given), the T/C runs as follows: (dose: 100.0 mg/kg/injection, schedule: Q01DX009 (ip), vehicle: gum acacia) 88 % of control; (dose: 100.0 mg/kg/injection, schedule: Q04DX003 (ip), vehicle: gum acacia) 95 % of control; (dose: 200.0 mg/kg/injection, schedule: Q01DX009 (ip), vehicle: gum acacia) 88 % of control; (dose: 200.0 mg/kg/injection, schedule: Q04DX003 (ip), vehicle: gum acacia) 89 % of control; (dose: 400.0 mg/kg/injection, schedule: Q01DX009 (ip), vehicle: gum acacia) 90 % of control.
As to `COc1ccc(/C(C#N)=C2\OC(=O)c3ccccc32)cc1OC`, the T/C is 89 % of control under setting [1], 94 % of control under setting [2] and 89 % of control under setting [3].
In the case of `O=C(Cc1ccccc1[N+](=O)[O-])NCCc1ccc2c(c1)OCO2`, the T/C reads like this: (dose: 100.0 mg/kg/injection, schedule: Q01DX001 (ip), vehicle: other) 86 % of control; (dose: 200.0 mg/kg/injection, schedule: Q01DX001 (ip), vehicle: other) 89 % of control; (dose: 400.0 mg/kg/injection, schedule: Q01DX001 (ip), vehicle: other) 89 % of control.
With `CCOC(=O)c1cc(CC)sc1N`, the T/C is, setting by setting: under setting [6], 96 % of control; (dose: 100.0 mg/kg/injection, schedule: Q04DX003 (ip), vehicle: Klucel (hydroxypropylcellulose) (HPC)) 91 % of control; (dose: 200.0 mg/kg/injection, schedule: Q01DX009 (ip), vehicle: saline with Tween-80) 86 % of control; (dose: 200.0 mg/kg/injection, schedule: Q04DX003 (ip), vehicle: Klucel (hydroxypropylcellulose) (HPC)) 97 % of control; (dose: 400.0 mg/kg/injection, schedule: Q01DX009 (ip), vehicle: saline with Tween-80) 90 % of control; (dose: 400.0 mg/kg/injection, schedule: Q04DX003 (ip), vehicle: Klucel (hydroxypropylcellulose) (HPC)) 96 % of control.
Take `CCOC(=O)c1ccc(NC(=S)Nc2ccccc2)cc1N(CC)CC`: the T/C by setting is: under setting [4], 101 % of control; under setting [5], 97 % of control; (dose: 400.0 mg/kg/injection, schedule: Q01DX009 (ip), vehicle: Klucel (hydroxypropylcellulose) (HPC)) 104 % of control.
In the case of `Oc1ccc2ccccc2c1/C=C1/C=Nc2ccccc21`, the T/C was 88 % of control (dose: 100.0 mg/kg/injection, schedule: Q04DX002 (ip), vehicle: saline with Tween-80); 88 % of control (dose: 200.0 mg/kg/injection, schedule: Q04DX002 (ip), vehicle: saline with Tween-80); 103 % of control (dose: 400.0 mg/kg/injection, schedule: Q04DX002 (ip), vehicle: saline with Tween-80).
